Key:
EGFR (WT) = EGFR (WT) (Homo sapiens (Human), UniProt P00533); assay: Kinase-Glo luminescent kinase assay, EGFR tyrosine kinase inhibitory activity (WT); type: biochemical; details: EGFR wild type
Procedure: (§1) Determination of the Compound Inhibitory Activity Against EGFR Kinase
(§2) The inhibitory activity of compounds in formula (I) and (II) were determined using Kinase-Glo luminescent kinase assay. The receptor tyrosine kinase EGFR was tested and Gefitinib, a known EGFR inhibitor, was chosen as the positive control compound. The method is detailed below:
(§3) The sample compounds were dissolved in DMSO and diluted it to 500 μM concentration with DMSO and transferred to a dose plate. The compounds were serially diluted with DMSO in 5 fold concentration. Then each concentration was diluted 10-fold with the reaction buffer to get a 10× final concentration. Transfer the compounds with concentrations ranging from 0.003 μM to 50 μM to EGFR assay plate to determine their kinase activity with a dose of 1 μL/well.
(§4) The positive control compound Gifitinib was dissolved in DMSO as 10 mM stock solution and diluted it to 100 μM concentration with DMSO. The control compound was serially diluted with DMSO in 5 fold concentration. Then each concentration was diluted 10-fold with the reaction buffer to get a 10× final concentration.
(§5) For the HPE (hundred percent effect: No kinase and no compound, but containing ATP, substrate and 1% DMSO) and ZPE (zero percent effect: No compound but containing kinase, ATP, substrate and 1% DMSO) wells, dilute 2 μL DMSO 10-fold with reaction buffer to obtain 10% DMSO solution. Then transfer it to the assay plat, 1 μL/well. The positive control wells contain kinase, ATP, substrate and positive control compound in different concentrations. The sample compound wells contain kinase, ATP, substrate and the compounds to be tested in different concentrations.
(§6) Preparation of the reagents in need: 4×ATP: dilute ATP 4 times with assay buffer to obtain a working solution; 4× substrate: dilute Poly ([…]: tyrosine) 4 times with assay buffer to obtain a working solution; 2.5×EGFR kinase: dilute EGFR kinase 2.5 times with assay buffer to obtain a working solution.
(§7) Kinase reaction: Add 10× compounds to the assay plate in a 384-well plate layout, 1 μL/well. For the HPE and ZPE wells, equal volume (1 μL/well) of 10% DMSO was added to the 384-well assay plate; Add 2.5×EGFR kinase into the assay plate in 384-well plate layout, 4 μL/well. For HPE and ZPE wells, an equal volume (4 μL/well) of assay buffer was added to the 384-well assay plate; Centrifuge the assay plate with 1000 rpm for 1 min to mix them; Pre-incubate the assay plate for 30 min at 30° C.; Mix equal volume of 4×ATP and 4× substrate to obtain 2×ATP-substrate mixture which serves as a reaction mixture for the determination of EGFR activity; Add 2×ATP-substrate mixture to the assay plate, 5 μL/well; Centrifuge the assay plate at 1000 rpm for 1 min to mix them; Incubate the assay plate for one hour at 30° C.; Add Kinase glo plus was to each well (10 μL/well), and then incubated the assay plate for 20 min at 27° C.; Read luminescence signal with Envision plate reader.

EGFR (T790M) = EGFR (T790M) (Homo sapiens (Human), UniProt P00533, T790M); assay: Kinase-Glo luminescent kinase assay, EGFR tyrosine kinase inhibitory activity (T790M); type: biochemical
Sequence of EGFR (T790M) (P00533 25-1210 T790M): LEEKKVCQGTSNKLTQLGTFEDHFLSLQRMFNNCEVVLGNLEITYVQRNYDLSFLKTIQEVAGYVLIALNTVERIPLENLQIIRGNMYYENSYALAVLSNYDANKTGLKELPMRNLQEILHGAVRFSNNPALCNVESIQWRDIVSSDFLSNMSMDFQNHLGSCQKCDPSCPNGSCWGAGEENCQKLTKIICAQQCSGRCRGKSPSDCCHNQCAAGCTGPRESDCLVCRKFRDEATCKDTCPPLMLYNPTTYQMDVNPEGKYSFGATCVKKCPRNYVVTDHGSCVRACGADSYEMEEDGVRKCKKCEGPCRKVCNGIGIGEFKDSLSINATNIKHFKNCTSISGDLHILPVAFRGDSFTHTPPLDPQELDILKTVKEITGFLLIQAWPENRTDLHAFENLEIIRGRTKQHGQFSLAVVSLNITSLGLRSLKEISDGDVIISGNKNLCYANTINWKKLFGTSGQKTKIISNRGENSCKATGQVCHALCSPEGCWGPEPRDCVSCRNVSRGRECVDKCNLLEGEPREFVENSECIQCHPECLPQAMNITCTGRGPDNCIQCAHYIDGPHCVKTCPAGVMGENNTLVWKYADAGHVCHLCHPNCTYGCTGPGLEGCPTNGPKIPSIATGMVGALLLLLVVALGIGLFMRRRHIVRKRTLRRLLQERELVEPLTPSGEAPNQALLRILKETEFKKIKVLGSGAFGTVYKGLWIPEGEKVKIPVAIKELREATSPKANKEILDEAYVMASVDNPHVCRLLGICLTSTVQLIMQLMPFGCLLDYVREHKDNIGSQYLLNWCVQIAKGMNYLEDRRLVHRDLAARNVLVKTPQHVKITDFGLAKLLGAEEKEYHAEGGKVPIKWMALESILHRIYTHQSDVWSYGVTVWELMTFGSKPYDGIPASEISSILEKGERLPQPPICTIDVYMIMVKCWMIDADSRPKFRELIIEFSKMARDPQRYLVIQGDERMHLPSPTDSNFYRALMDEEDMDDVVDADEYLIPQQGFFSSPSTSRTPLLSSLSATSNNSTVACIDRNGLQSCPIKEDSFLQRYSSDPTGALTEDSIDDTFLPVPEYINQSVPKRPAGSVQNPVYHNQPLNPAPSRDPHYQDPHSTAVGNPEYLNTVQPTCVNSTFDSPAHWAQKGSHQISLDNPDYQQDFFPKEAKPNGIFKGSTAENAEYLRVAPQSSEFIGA
Procedure: as §1, §2, §3, §4, §5, §6, §7

Sequence of EGFR (WT) (P00533 25-1210): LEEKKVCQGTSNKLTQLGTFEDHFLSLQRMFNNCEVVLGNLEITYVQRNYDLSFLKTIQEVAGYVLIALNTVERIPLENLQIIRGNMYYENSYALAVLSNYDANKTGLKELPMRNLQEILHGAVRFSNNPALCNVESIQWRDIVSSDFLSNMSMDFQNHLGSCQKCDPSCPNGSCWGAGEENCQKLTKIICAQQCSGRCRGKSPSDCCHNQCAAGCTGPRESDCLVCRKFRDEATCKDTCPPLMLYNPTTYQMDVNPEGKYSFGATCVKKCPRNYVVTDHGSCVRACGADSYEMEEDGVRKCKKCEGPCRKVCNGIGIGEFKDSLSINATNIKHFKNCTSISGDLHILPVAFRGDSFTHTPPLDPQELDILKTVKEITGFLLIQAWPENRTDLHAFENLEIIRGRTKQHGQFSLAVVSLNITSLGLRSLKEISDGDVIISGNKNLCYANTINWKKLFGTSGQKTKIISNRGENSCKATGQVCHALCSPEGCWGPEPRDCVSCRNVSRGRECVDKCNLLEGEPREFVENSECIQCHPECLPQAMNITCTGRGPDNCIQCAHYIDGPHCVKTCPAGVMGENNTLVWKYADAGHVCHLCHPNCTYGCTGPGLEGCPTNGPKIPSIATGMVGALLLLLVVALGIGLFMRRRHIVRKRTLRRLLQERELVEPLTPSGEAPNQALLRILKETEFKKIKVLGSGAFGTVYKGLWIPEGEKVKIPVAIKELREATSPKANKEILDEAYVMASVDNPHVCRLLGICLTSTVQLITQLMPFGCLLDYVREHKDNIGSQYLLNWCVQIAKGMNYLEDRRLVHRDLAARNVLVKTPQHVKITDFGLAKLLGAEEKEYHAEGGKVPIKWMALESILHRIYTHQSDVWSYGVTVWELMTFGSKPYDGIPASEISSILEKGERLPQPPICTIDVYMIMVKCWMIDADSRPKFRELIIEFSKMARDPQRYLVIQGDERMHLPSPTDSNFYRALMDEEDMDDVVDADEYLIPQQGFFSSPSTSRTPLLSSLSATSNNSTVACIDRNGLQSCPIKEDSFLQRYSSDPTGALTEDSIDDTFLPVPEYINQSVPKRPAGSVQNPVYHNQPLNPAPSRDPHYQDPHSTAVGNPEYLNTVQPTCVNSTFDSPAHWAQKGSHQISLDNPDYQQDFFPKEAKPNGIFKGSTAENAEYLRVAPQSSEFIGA

COc1ccc(Nc2ncnc3cc(OC(C)C)c4c(c23)OCCO4)cc1[N+](=O)[O-] [Compound I-1, 5-Isopropoxy-N-(4-methoxy-3-nitrophenyl)-2,3-dihydro-[1,4]dioxino[2,3-f]quinazolin-10-amine]
IC50 (EGFR (WT)): < 1000 nM
IC50 (EGFR (T790M)): < 1000 nM

CC(C)Oc1cc2ncnc(Nc3ccc(F)c([N+](=O)[O-])c3)c2c2c1OCCO2 [Compound I-2, N-(4-Fluoro-3-nitrophenyl)-5-isopropoxy-2,3-dihydro-[1,4]dioxino[2,3-f]quinazolin-10-amine]
IC50 (EGFR (WT)): < 100 nM
IC50 (EGFR (T790M)): < 1000 nM

Cc1ccc(Nc2ncnc3cc(OC(C)C)c4c(c23)OCCO4)cc1[N+](=O)[O-] [Compound I-3, 5-Isopropoxy-N-(4-methyl-3-nitrophenyl)-2,3-dihydro-[1,4]dioxino[2,3-f]quinazolin-10-amine]
IC50 (EGFR (WT)): < 200 nM
IC50 (EGFR (T790M)): < 1000 nM

CC(C)Oc1cc2ncnc(Nc3ccc(Cl)c([N+](=O)[O-])c3)c2c2c1OCCO2 [Compound I-4, N-(4-Chloro-3-nitrophenyl)-5-isopropoxy-2,3-dihydro-[1,4]dioxino[2,3-f]quinazolin-10-amine]
IC50 (EGFR (WT)): < 100 nM
IC50 (EGFR (T790M)): < 1000 nM

CC(C)Oc1cc2ncnc(Nc3ccc(F)c(C#N)c3)c2c2c1OCCO2 [Compound I-5, 2-Fluoro-5-((5-isopropoxy-2,3-dihydro-[1,4]dioxino[2,3-f]quinazolin-10-yl)amino)benzonitrile]
IC50 (EGFR (WT)): < 300 nM
IC50 (EGFR (T790M)): < 1000 nM

Cc1ccc(Nc2ncnc3cc(OC(C)C)c4c(c23)OCCO4)cc1C#N [Compound I-6, 5-((5-Isopropoxy-2,3-dihydro-[1,4]dioxino[2,3-f]quinazolin-10-yl)amino)-2-methylbenzonitrile]
IC50 (EGFR (WT)): < 400 nM
IC50 (EGFR (T790M)): < 1000 nM

COCCOc1cc2ncnc(Nc3ccc(OC)c([N+](=O)[O-])c3)c2c2c1OCCO2 [Compound I-9, N-(4-Methoxy-3-nitrophenyl)-5-(2-methoxyethoxy)-2,3-dihydro-[1,4]dioxino[2,3-f]quinazolin-10-amine]
IC50 (EGFR (WT)): < 1000 nM
IC50 (EGFR (T790M)): < 1000 nM

COCCOc1cc2ncnc(Nc3ccc(C)c([N+](=O)[O-])c3)c2c2c1OCCO2 [Compound I-11, 5-(2-Methoxyethoxy)-N-(4-methyl-3-nitrophenyl)-2,3-dihydro-[1,4]dioxino[2,3-f]quinazolin-10-amine]
IC50 (EGFR (WT)): < 100 nM
IC50 (EGFR (T790M)): < 1000 nM

COCCOc1cc2ncnc(Nc3ccc(Cl)c([N+](=O)[O-])c3)c2c2c1OCCO2 [Compound I-12, N-(4-Chloro-3-nitrophenyl)-5-(2-methoxyethoxy)-2,3-dihydro-[1,4]dioxino[2,3-f]quinazolin-10-amine]
IC50 (EGFR (WT)): < 50 nM
IC50 (EGFR (T790M)): < 1000 nM

COCCOc1cc2ncnc(Nc3ccc(F)c(C#N)c3)c2c2c1OCCO2 [Compound I-13, 2-Fluoro-5-((5-(2-methoxyethoxy)-2,3-dihydro-[1,4]dioxino[2,3-f]quinazolin-10-yl)amino)benzonitrile]
IC50 (EGFR (WT)): < 500 nM
IC50 (EGFR (T790M)): < 1000 nM

COCCOc1cc2ncnc(Nc3ccc(C)c(C#N)c3)c2c2c1OCCO2 [Compound I-14, 5-((5-(2-Methoxyethoxy)-2,3-dihydro-[1,4]dioxino[2,3-f]quinazolin-10-yl)amino)-2-methylbenzonitrile]
IC50 (EGFR (WT)): < 1000 nM
IC50 (EGFR (T790M)): < 1000 nM

CCOC(C)Oc1cc2ncnc(Nc3ccc(OC)c([N+](=O)[O-])c3)c2c2c1OCCO2 (stereo not drawn) [Compound I-15, 5-(1-Ethoxyethoxy)-N-(4-methoxy-3-nitrophenyl)-2,3-dihydro-[1,4]dioxino[2,3-f]quinazolin-10-amine]
IC50 (EGFR (WT)): < 1000 nM
IC50 (EGFR (T790M)): < 1000 nM

CCOC(C)Oc1cc2ncnc(Nc3ccc(Cl)c([N+](=O)[O-])c3)c2c2c1OCCO2 (stereo not drawn) [Compound I-17, N-(4-Chloro-3-nitrophenyl)-5-(1-ethoxyethoxy)-2,3-dihydro-[1,4]dioxino[2,3-f]quinazolin-10-amine]
IC50 (EGFR (WT)): < 300 nM
IC50 (EGFR (T790M)): < 1000 nM

CCOC(C)Oc1cc2ncnc(Nc3ccc(C)c([N+](=O)[O-])c3)c2c2c1OCCO2 (stereo not drawn) [Compound I-18, 5-(1-Ethoxyethoxy)-N-(4-methyl-3-nitrophenyl)-2,3-dihydro-[1,4]dioxino[2,3-f]quinazolin-10-amine]
IC50 (EGFR (WT)): < 300 nM
IC50 (EGFR (T790M)): < 1000 nM

CCOC(C)Oc1cc2ncnc(Nc3ccc(F)c(C#N)c3)c2c2c1OCCO2 (stereo not drawn) [Compound I-19, 5-((5-(1-Ethoxyethoxy)-2,3-dihydro-[1,4]dioxino[2,3-f]quinazolin-10-yl)amino)-2-fluoro-benzonitrile]
IC50 (EGFR (WT)): < 300 nM
IC50 (EGFR (T790M)): < 1000 nM

CCOC(C)Oc1cc2ncnc(Nc3ccc(C)c(C#N)c3)c2c2c1OCCO2 (stereo not drawn) [Compound I-20, 5-((5-(1-Ethoxyethoxy)-2,3-dihydro-[1,4]dioxino[2,3-f]quinazolin-10-yl)amino)-2-methylbenzonitrile]
IC50 (EGFR (WT)): < 1000 nM
IC50 (EGFR (T790M)): < 1000 nM

C#Cc1cccc(Nc2ncnc3cc(OC(C)COC)c4c(c23)OCCO4)c1 (stereo not drawn) [Compound I-26, N-(3-Ethynylphenyl)-5-(1-methoxypropan-2-yloxy)-2,3-dihydro-[1,4]dioxino[2,3-f]quinazolin-10-amine]
IC50 (EGFR (WT)): < 100 nM
IC50 (EGFR (T790M)): < 300 nM

CC(C)Oc1cc2ncnc(Nc3ccc(OCc4cccc(F)c4)c(Cl)c3)c2c2c1OCCO2 [Compound I-27, N-(3-Chloro-4-((3-fluorobenzyl)oxy)phenyl)-5-isopropoxy-2,3-dihydro-[1,4]dioxino[2,3-f]quinazolin-10-amine]
IC50 (EGFR (WT)): < 200 nM
IC50 (EGFR (T790M)): < 1000 nM

C#Cc1cccc(Nc2ncnc3cc(OC)c4c(c23)OCCO4)c1 [Compound I-28, N-(3-Ethynylphenyl)-5-methoxy-2,3-dihydro-[1,4]dioxino[2,3-f]quinazolin-10-amine]
IC50 (EGFR (WT)): < 50 nM
IC50 (EGFR (T790M)): < 1000 nM

COc1cc2ncnc(Nc3ccc(F)c(Cl)c3)c2c2c1OCCO2 [Compound I-29, N-(3-Chloro-4-fluorophenyl)-5-methoxy-2,3-dihydro-[1,4]dioxino[2,3-f]quinazolin-10-amine]
IC50 (EGFR (WT)): < 50 nM
IC50 (EGFR (T790M)): < 1000 nM

C#Cc1cccc(Nc2ncnc3cc(OCCOC)c4c(c23)OCCO4)c1 [Compound I-31, N-(3-Ethynylphenyl)-5-(2-methoxyethoxy)-2,3-dihydro-[1,4]dioxino[2,3-f]quinazolin-10-amine]
IC50 (EGFR (WT)): < 50 nM
IC50 (EGFR (T790M)): < 50 nM

COCCOc1cc2ncnc(Nc3ccc(F)cc3)c2c2c1OCCO2 [Compound I-32, N-(4-fluorophenyl)-5-(2-methoxyethoxy)-2,3-dihydro-[1,4]dioxino[2,3-f]quinazolin-10-amine]
IC50 (EGFR (WT)): < 200 nM
IC50 (EGFR (T790M)): < 1000 nM

CCOc1cc2ncnc(Nc3cccc([N+](=O)[O-])c3)c2c2c1OCCO2 [Compound I-38, 5-Ethoxy-N-(3-nitrophenyl)-2,3-dihydro-[1,4]dioxino[2,3-f]quinazolin-10-amine]
IC50 (EGFR (WT)): < 50 nM
IC50 (EGFR (T790M)): < 50 nM

Fc1ccc(Nc2ncnc3cc(OCC4CCCO4)c4c(c23)OCCO4)cc1Cl (stereo not drawn) [Compound I-40, N-(3-Chloro-4-fluorophenyl)-5-((tetrahydrofuran-2-yl)methoxy)-2,3-dihydro-[1,4]dioxino[2,3-f]quinazolin-10-amine]
IC50 (EGFR (WT)): < 50 nM
IC50 (EGFR (T790M)): < 1000 nM

Cc1ccc(Nc2ncnc3cc4c(cc23)N(CCCN2CCOCC2)C(=O)CO4)cc1Cl [II-3, 4-((3-Chloro-4-methylphenyl)amino)-6-(3-morpholinopropyl)[1,4]oxazino[3,2-g]quinazolin-7(8H)-one]
IC50 (EGFR (WT)): < 200 nM
IC50 (EGFR (T790M)): < 1000 nM

COc1cccc(Nc2ncnc3cc4c(cc23)N(CCCN2CCOCC2)C(=O)CO4)c1 [II-4, 4-((3-Methoxyphenyl)amino)-6-(3-morpholinopropyl)-6H-[1,4]oxazino[3,2-g]quinazolin-7(8H)-one]
IC50 (EGFR (WT)): < 200 nM
IC50 (EGFR (T790M)): < 1000 nM

COc1ccc(Nc2ncnc3cc4c(cc23)N(CCCN2CCOCC2)C(=O)CO4)cc1OC [II-5, 4-((3,4-Dimethoxyphenyl)amino)-6-(3-morpholinopropyl)-6H-[1,4]oxazino[3,2-g]quinazolin-7(8H)-one]
IC50 (EGFR (WT)): < 200 nM
IC50 (EGFR (T790M)): < 1000 nM

— US10106508B2, “Quinazoline heterocyclic compound as EGFR kinase inhibitor and preparation and application thereof” (BEIJING SCITECH-MQ PHARMACEUTICALS LIMITED, priority 2015, dated 2018)
